Results as given in patent US6946442B2, “Method of hastening cervical ripening” (priority 1994, dated 2005).

Legend:
[1] = system: VEGF165 mRNA; experiment: Northern blot hybridisation, VEGF165 mRNA in non-pregnant cervical tissue explants; type: cell-based, human; details: 48 hours
Protocol: Human uterine non-pregnant cervix tissue was obtained from non-malignant hysterectomies. The samples were maintained in phenol red free culture media DMEM supplemented with penicillin (1%), streptomycin (1%) and L-Glutamine (1%) and transferred to the laboratory on ice. The biopsies were washed in ice-cold saline solution then cut into small sections 1 to 2 mm and incubated in the above culture medium in 60×15 mm petri dishes at 37° C. in 5% CO2/95% air. Progesterone (P2) was added to the culture medium at concentrations of 10^−4, 10^−6 and 10^−8 M. 17−β Estradiol (E2) was added to the culture medium either alone at concentrations of 10^−6, 10^−7 and 10^−8 M or for 2 hours to prime the cervical explants at a concentration of 10^−7 M, followed by addition of Progesterone (P2) at concentrations ranging from 10^31 4 to 10^−8 M. The effect of VEGF165 (1, 10, 50, 100, 200 ng/ml) and PAF (10^−6−10^−10 M) in the non-pregnant cervical explants was also investigated. This culture system was chosen because it allows study of the intact tissues in their own matrix and avoids the potentially artefact-producing procedures of cell dispersion and culture. In this system, the cells remain intact for at least 5 days. RNA (40 μg/lane) was loaded onto a 1.2% agarose/formaldehyde gel, electrophoretically separated, transferred onto Hybond nylon membranes, and immobilised by exposure to U.V. light for 5 min. Membranes were prehybridized at 42° C. for 8 hours in a solution containing 50% formamide, 5×SSC, 5×Denhardt's solution, 0.5% SDS and salmon sperm DNA at 150 μg/ml. The VEGF165 cDNA was labelled with [α-^32P]dCTP by random-primer extension. 18s oligonucleotide probe labelled by T4 polynucleotide kinase with […] was used to determine the relative amount of RNA loaded in each lane by rehybridizing the blots that have previously been probed with VEGF165. Hybridisation was done under the same conditions with the labelled probe for 18 hours at 42° C. […]

[2] = system: VEGF protein expression; experiment: Western blot analysis, VEGF protein expression in non-pregnant cervical explants and culture medium; type: cell-based, human
Protocol: Human uterine non-pregnant cervix tissue was obtained from non-malignant hysterectomies. The samples were maintained in phenol red free culture media DMEM supplemented with penicillin (1%), streptomycin (1%) and L-Glutamine (1%) and transferred to the laboratory on ice. The biopsies were washed in ice-cold saline solution then cut into small sections 1 to 2 mm and incubated in the above culture medium in 60×15 mm petri dishes at 37° C. in 5% CO2/95% air. Progesterone (P2) was added to the culture medium at concentrations of 10^−4, 10^−6 and 10^−8 M. 17−β Estradiol (E2) was added to the culture medium either alone at concentrations of 10^−6, […] M, followed by addition of Progesterone (P2) at concentrations ranging from 10^31 4 to 10^−8 M. The effect of VEGF165 (1, 10, 50, 100, 200 ng/ml) and PAF (10^−6−10^−10 M) in the non-pregnant cervical explants was also investigated. This culture system was chosen because it allows study of the intact tissues in their own matrix and avoids the potentially artefact-producing procedures of cell dispersion and culture.
Cervical tissue, after having been stimulated with VEGF165 or PAF for 24 hours or with the ovarian steroid hormones, 17β-estradiol (E2) and progesterone (P2), for 48 hours, was washed twice in ice-cold PBS and homogenised in ice-cold, high salt lysis buffer (containing 0.4 M KCl, 20 mM HEPES, 1 mM DTT, 20% glycerol, 0.5 mg/ml Bacitracin, 40 μg/ml PMSF, 5 μg/ml Peptastin, 5 μg/ml Leupeptin). Homogenates were centrifuged at 12,000 revolutions/min for 15 minutes and the supernatants containing extracted protein were collected. The culture medium used to incubate the tissue with or without E2, P2 or E2+P2 was also collected, centrifuged. To the supernatant, 3 volumes of ethanol were added and stored at −70° C. for at least 5 hours. Then, the culture medium/ethanol suspension was centrifuged at 10,000 rpm for 10 min and the pellet containing the protein was resuspended in lysis buffer. Total protein, extracted from both tissue and medium, was quantified with the Bio-Rad protein assay, and 500 ng of protein from each sample was diluted in loading buffer (containing 0.02 M Tris-HCl, 0.002 M EDTA, 2% SDS, 10% mercaptoethanol, 20% glycerol, bromophenol blue). Samples were subjected to electrophoresis in a 12% polyacrylamide gel with 5% stacking gel and transferred overnight at 36V onto a nitrocellulose membrane. The membrane was blocked at RT with 1% skimmed milk in Tris-buffered saline solution before incubation with an antiserum (diluted 1:500) directed against the rabbit VEGF165 at 4° C. After a 15 min. wash and 2×5 min. washes with Tris-buffered saline solution at room temperature (RT), the membrane was incubated in an anti-rabbit secondary Ab conjugated to alkaline phosphatase. In case of Western blotting experiments for Connexin-43, the membrane was blocked overnight at 4° C. in blocking buffer (1% BSA in 10 mM Tris pH 7.5, 100 mM NaCl, 0.1% Tween 20), before incubation with a monoclonal antibody directed against Connexin-43 again overnight at 4° C. After a 6×5 min. washes with Tris-buffered saline solution, the membrane was incubated in a mouse secondary Ab conjugated to alkaline phosphatase. A chemiluminescence system (ECL-Amersham) was used to visualise the presence of VEGF165, Connexin-43 or Flt-1 protein. This is a highly sensitive and quantitative assay for detecting proteins immobilised on membranes.
Cervical tissue explants in culture medium were exposed to various concentrations of the ovarian steroid hormones, 17β-estradiol (E2) and progesterone (P2), for 48 hours, followed by extraction of protein from the tissue as well as the culture medium.

[3] = system: pregnant rats; experiment: Preterm delivery induced by progesterone receptor antagonist in pregnant rats; type: in vivo, Sprague-Dawley rats; details: 10 mg s.c. on day 19, in 24 h
Protocol: Treatments (Protocols A and B): Mouse recombinant VEGF164 (the murine equivalent of human VEGF165) was dissolved at a concentration of 10 and 100 ng/ml gel. Control animals received applications of gel only. Some animals were injected on day 19 s.c. with 10 mg progesterone receptor antagonist RU486, a protocol which induces in 24 h preterm delivery in 80% of animals.

[4] = system: Connexin-43; experiment: Western blot, Connexin-43 expression in non-pregnant cervical explants; type: cell-based, human
Protocol: Human uterine non-pregnant cervix tissue was obtained from non-malignant hysterectomies. The samples were maintained in phenol red free culture media DMEM supplemented with penicillin (1%), streptomycin (1%) and L-Glutamine (1%) and transferred to the laboratory on ice. The biopsies were washed in ice-cold saline solution then cut into small sections 1 to 2 mm and incubated in the above culture medium in 60×15 mm petri dishes at 37° C. in 5% CO2/95% air. Progesterone (P2) was added to the culture medium at concentrations of 10^−4, 10^−6 and 10^−8 M. 17−β Estradiol (E2) was added to the culture medium either alone at concentrations of 10^−6, 10^−7 and 10^−8 M or for 2 hours to prime the cervical explants at a concentration of 10^−7 M, followed by addition of Progesterone (P2) at concentrations ranging from 10^31 4 to 10^−8 M. The effect of VEGF165 (1, 10, 50, 100, 200 ng/ml) and PAF (10^−6−10^−10 M) in the non-pregnant cervical explants was also investigated. This culture system was chosen because it allows study of the intact tissues in their own matrix and avoids the potentially artefact-producing procedures of cell dispersion and culture. In this system, the cells remain intact for at least 5 days.

[5] = system: Connexin-43; details: non-pregnant myometrial explants, FIG. 11A
Protocol: Cervical tissue, after having been stimulated with VEGF165 or PAF for 24 hours or with the ovarian steroid hormones, 17β-estradiol (E2) and progesterone (P2), for 48 hours, was washed twice in ice-cold PBS and homogenised in ice-cold, high salt lysis buffer (containing 0.4 M KCl, 20 mM HEPES, 1 mM DTT, 20% glycerol, 0.5 mg/ml Bacitracin, 40 μg/ml PMSF, 5 μg/ml Peptastin, 5 μg/ml Leupeptin). Homogenates were centrifuged at 12,000 revolutions/min for 15 minutes and the supernatants containing extracted protein were collected. The culture medium used to incubate the tissue with or without E2, P2 or E2+P2 was also collected, centrifuged. To the supernatant, 3 volumes of ethanol were added and stored at −70° C. for at least 5 hours. Then, the culture medium/ethanol suspension was centrifuged at 10,000 rpm for 10 min and the pellet containing the protein was resuspended in lysis buffer. Total protein, extracted from both tissue and medium, was quantified with the Bio-Rad protein assay, and 500 ng of protein from each sample was diluted in loading buffer (containing 0.02 M Tris-HCl, 0.002 M EDTA, 2% SDS, 10% mercaptoethanol, 20% glycerol, bromophenol blue). […] This is a highly sensitive and quantitative assay for detecting proteins immobilised on membranes.

[6] = system: rat cervix; experiment: Tensile properties (stress-strain, extensibility) of isolated cervix after intravaginal treatment of pregnant rats; type: in vivo, Sprague-Dawley rats; details: for cervical extensibility: 100 ng/ml gel intravaginally
Protocol: Control animals received applications of gel only.
The tensile properties of the isolated cervix were evaluated using the Shimadzu EZ-Test instrumentation using a test regimen which mimicked the conditions during labour. Briefly, the cervix was suspended between two hooks by means of threads passed through the cervical canal. It was then placed in a 40 ml tissue bath containing 10 mM HEPES/PBS solution (pH=7.4) maintained at 25° C. […] Each cervix was allowed 30 min. to equilibrate. The lower hook was fixed while the upper hook was movable, to simultaneously record displacement and force with a sample rate of 20 Hz. […] The upper hook was moved until a small resistance of the tissue (20 mN) was recorded after which the tester automatically moved the upper hook to incrementally stretch the cervix in steps of 0.4 mm. at 1 min. intervals. Between subsequent stretches the hook rested for 1 min. allowing the cervix to accommodate. During the accommodation periods the cervix reverted back to a relaxed state, therefore diminishing the opposed resistance and thus the tension recorded by the tester. FIG. 15 illustrates a typical stress-strain plot of a rat cervix. […] At YP permanent morphological changes and breaks in the material begin to occur. Break-point (BP) is the moment where the tissue completely breaks and the load abruptly falls toward zero. To quantify the elastic behaviour of the cervix (cervical resistance), straight lines are fitted through the linear portion of the force versus displacement curve. The slopes of the upper, lower and mid-point regression lines that are related to Young's modulus for elastic materials were used to best characterise the tensile properties of the sample. A larger slope indicates a higher resistance to dilation, therefore lower extensibility.

Molecule: C[C@]12CC[C@@H]3c4ccc(O)cc4CC[C@H]3[C@@H]1CC[C@@H]2O [17β-estradiol]
- VEGF mRNA compared to Control ([1]; 17β-estradiol alone, non-pregnant cervical explants): up-regulates
- secreted forms of VEGF in the culture medium ([2]; 17β-estradiol, 48 hours, culture medium): up-regulates
- VEGF protein in the tissue itself ([2]; 17β-estradiol, 48 hours, tissue): no effect

Molecule: CC#C[C@]1(O)CC[C@H]2[C@@H]3CCC4=CC(=O)CCC4=C3[C@@H](c3ccc(N(C)C)cc3)C[C@@]21C [RU486]
- preterm delivery [3]: 80 % of animals

Molecule: CC(=O)[C@H]1CC[C@H]2[C@@H]3CCC4=CC(=O)CC[C@]4(C)[C@H]3CC[C@]12C [progesterone]
- VEGF mRNA ([1]; progesterone at 10^−4 M in the presence of 10^−7 M 17β-estradiol): down-regulated
- VEGF mRNA ([1]; progesterone at 10^−4 M): down-regulated
- VEGF protein expression in the culture medium ([2]; explants primed with 17β-estradiol for 4 hours, then increasing concentration of progesterone, culture medium): dose-dependent increase
- VEGF protein expression in the tissue ([2]; explants primed with 17β-estradiol for 4 hours, then increasing concentration of progesterone, tissue): dose-dependent increase
- VEGF protein in the culture medium compared with Control ([2]; progesterone at 10^−4 M, 48 hours, culture medium): down-regulated
- VEGF protein in the tissue itself compared with Control ([2]; progesterone at 10^−4 M, 48 hours, tissue): down-regulated

Molecule: platelet-activating factor [PAF]
- VEGF expression in non-pregnant cervix ([2]; PAF at various concentrations, 24 hours): increases
- connexin-43 expression in cervix ([4]; PAF at various concentrations, non-pregnant cervix, FIG. 12): up-regulation

Molecule: VEGF
- connexin-43 expression in myometrial explants [5]: up-regulation
- slope of stress-strain curve ([6]; 10 ng/ml gel intravaginally, protocol B (day 16 to day 20), significant only when applied later in pregnancy): statistically significant decrease
- cervical extensibility ([6]; protocol A (day 12 to day 16)): significantly increased
- cervical extensibility ([6]; protocol B (day 16 to day 20)): significantly increased
- connexin-43 expression in cervical explants ([4]; non-pregnant cervical explants, FIG. 11B): up-regulation
